Test results reported in article PMC10924921, “Mi-2β promotes immune evasion in melanoma by activating EZH2 methylation” (Nature Communications, 2024).

Tests used:
[1] = system: secreted Cxcl9 and Cxcl10, B16F10 cells; experiment: ELISA of secreted Cxcl9 and Cxcl10 in stimulated cells; type: cell-based, mouse; details: MS177 (10 μM), GSK126 (2μM) or Z36-MP5 (10 μM)
Protocol: B16F10 cells (1 × 10^6) with or without Mi-2β knockdown were seeded in 6-well plates in complete growth medium. Cell medium was changed to serum-free medium, before treatment with IFN-γ at indicated concentration for 24 h. The secreted chemokines were measured by mouse Cxcl9 ELISA kit (ab203364) and mouse Cxcl10 ELISA Kit (ab214563), according to the manufacturer’s protocols. Isolated graft tumors were prepared and minced with blades, then tumor tissues were cultured in PBS (250 mg/500 µl) for 4 h at 37 °C. The secreted amount of the chemokines in the culture were measured by mouse Cxcl9 ELISA kit (ab203364) and mouse Cxcl10 ELISA Kit (ab214563), according to the manufacturer’s protocols.
Supplementary Figure 10. Comparison of tumor growth inhibition effects between Z36-MP5 and EZH2 inhibitors. a Mice (n=8) bearing B16F10 cells were treated with control IgG or anti-PD-1 antibody in combination with Z36-MP5 or GSK126, as indicated. A mouse survival curve is shown, with log-rank test for mouse survival P value. b,c The epigenetic modifications of H3 (H3K27ac, H3K27me1 and H3K27me3) were measured in B16F10 cells stimulated with GSK126 or Z36-MP5 as indicated (n = 3, independent experiments). d The amount of secreted Cxcl9 and Cxcl10 was measured by ELISA in […]
represent mean ± SD. The unpaired, two tailed t-test. Source data are provided as a Source Data file. […]

[2] = system: H3K27me3 and H3K27ac in melanoma cells (B16F10, PM); experiment: Western blot of epigenetic modifications of H3; type: cell-based, mouse
Protocol: The lysis buffer (50 mM Tris pH 7.4, 1% Triton X-100, 0.5 mM EDTA, 0.5 mM EGTA, 150 mM NaCl, 10% glycerol, 1 mM phenylmethylsulfonyl fluoride and complete protease inhibitor cocktail (Roche)) were used to prepare the whole-cell lysates, which was followed by homogenization and centrifuge (14,000 rpm for 15 min at 4 °C). Pierce BCA Protein Assay Kit (Thermo Fisher Scientific) was used to detect protein concentration. After SDS-PAGE separation and PVDF membrane (BIO-RAD) transfer of the proteins, the specific primary was probed at 4 °C for overnight, before incubated with corresponding horseradish peroxidase (HRP)-conjugated 2nd antibodies. Pierce ECL Western Blotting Substrate (Thermo Fisher Scientific) was used for protein detection. Antibodies were: anti-Mi-2β(1:1000), anti-EZH2 (ab70469, Abcam) (1:1000), anti-β-actin-peroxidase antibody (AC15) (1:5000) and anti-rabbit secondary antibody (A-4914) (1:10,000). Antibody information have shown in Supplementary data 3.
Supplementary Figure 10. […] A mouse survival curve is shown, with log-rank test for mouse survival P value. b,c The epigenetic modifications of H3 (H3K27ac, H3K27me1 and H3K27me3) were measured in B16F10 cells stimulated with GSK126 or Z36-MP5 as indicated (n = 3, independent experiments). d The amount of secreted Cxcl9 and Cxcl10 was measured by ELISA in […]

[3] = system: Cxcl9 and Cxcl10 mRNA in B16F10 cells; experiment: RT-qPCR of Mi-2β target genes in treated cells; type: cell-based, mouse
Protocol: (§1) Z36-MP5 was chosen for further validation and experimental therapeutics in vivo. […] To investigate its cellular inhibitory activity, B16F10 cells were treated with Z36-MP5 at concentrations ranging from 5 to 100 µM, and the activation of Mi-2β target genes measured by RT-qPCR. […] In addition, the pharmacokinetic properties of Z36-MP5 in Sprague-Dawley rats with administration of intraperitoneal injection dose of 1.0 mg/kg. […] To exclude any effects on the host cells, we implanted Mi-2β-null melanoma cells into C57BL6 mice and then treated the mice with Z36-MP5 accompanied by anti-PD-1 therapy.
The total RNA was extracted with QIAGEN RNeasy kit […] for cDNA synthesis with SuperScript II Reverse Transcriptase (Invitrogen). In total, 40 ng cDNA was used for quantitative real-time PCR amplification by TaqMan Gene Expression Master Mix (Thermo Fisher Scientific). The relative transcript levels were normalized with GAPDH expression. The data were calculated with the comparative CT method. Primers for RT-qPCR assays are shown in Supplementary Data 3.

[4] = Tolerability: mouse weight and organ histology; type: in vivo; details: 30 mg/kg/day for 2 weeks
Protocol: as §1
Supplementary Figure 8. In vitro assay for Mi-2β inhibitors. a The body weight changes of C57BL/6J mice treated with Z36-MP5 (30 mg/kg/day) for 2 weeks. Data are mean ± SEM (n=5). b H&E staining of tissues in C57BL/6J mice treated with or without Z36 -MP5 (30 mg/kg/day) for 2 weeks. […]
The growth of tumor grafts was measured. n = 5. g Mice bearing B16F10 cell s were treated with MS177 (100 mg/kg, 5 days) and then Z36 -MP5 (30 mg/kg/day) or vehicles, accompanied with anti -PD-1 antibody […]

## Cn1c(=O)[nH]c2ccc(-c3cccc(C(=O)NC4CCn5ccnc5C4)c3)cc21 (stereo not drawn) [Z36-MP5]
[1]
  induction of ISGs compared with GSK126 or MS177: more efficiently induced
[2]; PM cells, compared to GSK126 treatment
  H3K27ac level: only slightly increased
[2]; melanoma cells
  level of H3K27me3: repressed
[3]; 5 μM to 100 μM
  expressions of Mi-2β target genes Cxcl9 and Cxcl10: substantial increases
[3]; 25 µM, 24 h
  Mi-2β target gene expression (Cxcl9, Cxcl10 mRNA): induced Mi-2β target gene expression including Cxcl9 and Cxcl10
[4]
  tolerability (mouse weight, organ tissue histological staining): tolerated without significant toxicity
